Measured values as given in patent US20100311821A1, “Synthetic vector” (priority 2009, published 2010).

Test system: λ-DNA
Test: AFM imaging of DNA complexes
Type: physicochemical, lambda phage
Settings: 50 μg/ml λ-DNA, stoichiometric KWK 64 μM (16 μM PP4, 8 μM PP8), 10 mM sodium cacodylate buffer
Experimental: Preparation of DNA complexes. […] The mixture solution was vortexed for 30 seconds and allowed to equilibrate at room temperature for a few hours. The final DNA concentration was set at 50 μg/ml.
Characterization of DNA complexes structure by Atomic Force Microscopy. DNA complexes were deposited on freshly cleaved mica and then allowed to air dry. Tapping mode AFM imaging was performed on a Digital Instruments Nanoscope […] scanning probe microscope with a multimode head. Silicon probes (VistaProbes T300) with spring constant 40 N/m, resonant frequency, 300 kHz was used to obtain all images.
Long linear lambda phage DNA, λ-DNA, (double-stranded, 48 kbp, MW=3×10^7 Da, contour length—17 μm) in dilute aqueous solution (100 μg ml^−1 DNA in 10 mM pH=6.5 sodium cacodylate buffer containing 0.5 mM EDTA) was used for packaging studies. […] The final DNA concentration was set at 50 μg ml^−1 throughout the studies in this example. The DNA-KWK, DNA-PP4 and DNA-PP8 complex structures were investigated by atomic force microscope (“AFM”) on mica substrates.

lysine-tryptophan-lysine [KWK]
DNA compaction (AFM): No DNA compaction
